From ChEMBL document CHEMBL1137357, “Further synthetic and biological studies on vitamin D hormone antagonists based on C24-alkylation and C2alpha-functionalization of 25-dehydro-1alpha-hydroxyvitamin D(3)-26,23-lactones” (J Med Chem, 2006)

biological target: T1, Vitamin D3 receptor (Homo sapiens) (UniProt P11473); test: Antagonist activity against 1-alpha,25-dihydroxy vitamin D3-induced HL60 cell differentiation by NBT reduction method relative to TEI-9647; assay type: functional, cell-based; parameters: scale not given: the % may be the effect or the level left; details: HL-60
T1 sequence (whole entry): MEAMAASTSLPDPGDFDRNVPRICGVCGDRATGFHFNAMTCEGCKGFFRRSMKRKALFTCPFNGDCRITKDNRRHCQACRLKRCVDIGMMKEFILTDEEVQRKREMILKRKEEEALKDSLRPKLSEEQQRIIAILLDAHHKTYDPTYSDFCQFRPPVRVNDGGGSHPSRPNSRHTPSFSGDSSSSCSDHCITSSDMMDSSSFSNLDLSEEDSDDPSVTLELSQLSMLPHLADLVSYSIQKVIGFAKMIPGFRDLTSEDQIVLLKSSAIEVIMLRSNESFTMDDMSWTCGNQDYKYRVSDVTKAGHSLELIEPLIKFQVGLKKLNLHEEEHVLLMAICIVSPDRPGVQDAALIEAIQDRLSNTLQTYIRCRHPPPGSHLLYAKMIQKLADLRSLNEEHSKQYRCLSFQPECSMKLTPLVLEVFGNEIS

Activity [%] | Compound
17 | C=C1C(=O)O[C@H](C[C@@H](C)[C@H]2CC[C@H]3/C(=C/C=C4/C[C@@H](O)C[C@H](O)C4=C)CCC[C@]23C)[C@@H]1CCCC
442 | C=C1/C(=C\C=C2/CCC[C@]3(C)[C@@H]([C@H](C)C[C@@H]4OC(=O)C(=C)[C@@H]4CC)CC[C@@H]23)C[C@@H](O)[C@H](CCCO)[C@@H]1O
1160 | C=C1/C(=C\C=C2/CCC[C@]3(C)[C@@H]([C@H](C)C[C@@H]4OC(=O)C(=C)[C@@H]4CCCC)CC[C@@H]23)C[C@@H](O)[C@H](CCCO)[C@@H]1O
1510 | C=C1C(=O)O[C@@H](C[C@@H](C)[C@H]2CC[C@H]3/C(=C/C=C4/C[C@@H](O)[C@H](CCCO)[C@H](O)C4=C)CCC[C@]23C)[C@@H]1C
205 | C=C1/C(=C\C=C2/CCC[C@]3(C)[C@@H]([C@H](C)C[C@@H]4OC(=O)C(=C)[C@H]4CCCC)CC[C@@H]23)C[C@@H](O)[C@H](OCCCO)[C@@H]1O
1540 | C=C1/C(=C\C=C2/CCC[C@]3(C)[C@@H]([C@H](C)C[C@@H]4OC(=O)C(=C)[C@@H]4CCC)CC[C@@H]23)C[C@@H](O)[C@H](C)[C@@H]1O
1970 | C=C1/C(=C\C=C2/CCC[C@]3(C)[C@@H]([C@H](C)C[C@@H]4OC(=O)C(=C)[C@@H]4C)CC[C@@H]23)C[C@@H](O)[C@H](OCCCO)[C@@H]1O
517 | C=C1/C(=C\C=C2/CCC[C@]3(C)[C@@H]([C@H](C)C[C@@H]4OC(=O)C(=C)[C@@H]4C)CC[C@@H]23)C[C@@H](O)[C@H](CCCO)[C@@H]1O
220 | C=C1/C(=C\C=C2/CCC[C@]3(C)[C@@H]([C@H](C)C[C@@H]4OC(=O)C(=C)[C@@H]4C)CC[C@@H]23)C[C@@H](O)C[C@@H]1O
1160 | C=C1C[C@H](C[C@@H](C)[C@H]2CC[C@H]3/C(=C/C=C4/C[C@@H](O)[C@H](OCCCO)[C@H](O)C4=C)CCC[C@]23C)OC1=O
2910 | C=C1/C(=C\C=C2/CCC[C@]3(C)[C@@H]([C@H](C)C[C@@H]4OC(=O)C(=C)[C@@H]4CCCC)CC[C@@H]23)C[C@@H](O)[C@H](C)[C@@H]1O
4 | C=C1/C(=C\C=C2/CCC[C@]3(C)[C@@H]([C@H](C)C[C@H]4OC(=O)C(=C)[C@@H]4CC(C)C)CC[C@@H]23)C[C@@H](O)[C@H](C)[C@@H]1O
5 | C=C1/C(=C\C=C2/CCC[C@]3(C)[C@@H]([C@H](C)C[C@H]4OC(=O)C(=C)[C@@H]4CC(C)C)CC[C@@H]23)C[C@@H](O)C[C@@H]1O
86 | C=C1/C(=C\C=C2/CCC[C@]3(C)[C@@H]([C@H](C)C[C@@H]4OC(=O)C(=C)[C@@H]4CCC)CC[C@@H]23)C[C@@H](O)C[C@@H]1O
42 | C=C1/C(=C\C=C2/CCC[C@]3(C)[C@@H]([C@H](C)C[C@H]4OC(=O)C(=C)[C@@H]4CC(C)C)CC[C@@H]23)C[C@@H](O)[C@H](OCCCO)[C@@H]1O
13 | C=C1C(=O)O[C@H](C[C@@H](C)[C@H]2CC[C@H]3/C(=C/C=C4/C[C@@H](O)C[C@H](O)C4=C)CCC[C@]23C)[C@@H]1CC
38 | C=C1C(=O)O[C@H](C[C@@H](C)[C@H]2CC[C@H]3/C(=C/C=C4/C[C@@H](O)C[C@H](O)C4=C)CCC[C@]23C)[C@@H]1CCC
9 | C=C1C(=O)O[C@H](C[C@@H](C)[C@H]2CC[C@H]3/C(=C/C=C4/C[C@@H](O)C[C@H](O)C4=C)CCC[C@]23C)[C@@H]1CC(C)C

Second part, the molecule before the results:

Compound | Activity [%]
C=C1C(=O)O[C@@H](C[C@@H](C)[C@H]2CC[C@H]3/C(=C/C=C4/C[C@@H](O)C[C@H](O)C4=C)CCC[C@]23C)[C@@H]1C | 250
C=C1C[C@H](C[C@@H](C)[C@H]2CC[C@H]3/C(=C/C=C4/C[C@@H](O)[C@H](CCCO)[C@H](O)C4=C)CCC[C@]23C)OC1=O | 2990
C=C1C(=O)O[C@@H](C[C@@H](C)[C@H]2CC[C@H]3/C(=C/C=C4/C[C@@H](O)[C@H](OCCCO)[C@H](O)C4=C)CCC[C@]23C)[C@@H]1C | 1740
C=C1/C(=C\C=C2/CCC[C@]3(C)[C@@H]([C@H](C)C[C@H]4OC(=O)C(=C)[C@@H]4C)CC[C@@H]23)C[C@@H](O)[C@H](C)[C@@H]1O | 85
C=C1/C(=C\C=C2/CCC[C@]3(C)[C@@H]([C@H](C)C[C@@H]4OC(=O)C(=C)[C@H]4CCCC)CC[C@@H]23)C[C@@H](O)[C@H](CCCO)[C@@H]1O | 122
C=C1/C(=C\C=C2/CCC[C@]3(C)[C@@H]([C@H](C)C[C@H]4OC(=O)C(=C)[C@@H]4CCC)CC[C@@H]23)C[C@@H](O)[C@H](OCCCO)[C@@H]1O | 124
C=C1/C(=C\C=C2/CCC[C@]3(C)[C@@H]([C@H](C)C[C@H]4OC(=O)C(=C)[C@H]4CCCC)CC[C@@H]23)C[C@@H](O)[C@H](CCCO)[C@@H]1O | 46
C=C1/C(=C\C=C2/CCC[C@]3(C)[C@@H]([C@H](C)C[C@H]4OC(=O)C(=C)[C@@H]4CC)CC[C@@H]23)C[C@@H](O)[C@H](C)[C@@H]1O | 18
C=C1/C(=C\C=C2/CCC[C@]3(C)[C@@H]([C@H](C)C[C@@H]4OC(=O)C(=C)[C@H]4CC(C)C)CC[C@@H]23)C[C@@H](O)[C@H](CCCO)[C@@H]1O | 388
C=C1/C(=C\C=C2/CCC[C@]3(C)[C@@H]([C@H](C)C[C@H]4OC(=O)C(=C)[C@H]4CC)CC[C@@H]23)C[C@@H](O)[C@H](CCCO)[C@@H]1O | 18
C=C1/C(=C\C=C2/CCC[C@]3(C)[C@@H]([C@H](C)C[C@H]4OC(=O)C(=C)[C@@H]4CC(C)C)CC[C@@H]23)C[C@@H](O)[C@H](CCCO)[C@@H]1O | 32
C=C1/C(=C\C=C2/CCC[C@]3(C)[C@@H]([C@H](C)C[C@H]4OC(=O)C(=C)C4(C)C)CC[C@@H]23)C[C@@H](O)C[C@@H]1O | 16
C=C1/C(=C\C=C2/CCC[C@]3(C)[C@@H]([C@H](C)C[C@@H]4OC(=O)C(=C)[C@H]4CCC)CC[C@@H]23)C[C@@H](O)[C@H](CCCO)[C@@H]1O | 913
C=C1/C(=C\C=C2/CCC[C@]3(C)[C@@H]([C@H](C)C[C@@H]4OC(=O)C(=C)[C@@H]4CC)CC[C@@H]23)C[C@@H](O)[C@H](C)[C@@H]1O | 1290
C=C1/C(=C\C=C2/CCC[C@]3(C)[C@@H]([C@H](C)C[C@@H]4OC(=O)C(=C)[C@@H]4CC(C)C)CC[C@@H]23)C[C@@H](O)[C@H](OCCCO)[C@@H]1O | 3440
C=C1/C(=C\C=C2/CCC[C@]3(C)[C@@H]([C@H](C)C[C@H]4OC(=O)C(=C)[C@H]4CC(C)C)CC[C@@H]23)C[C@@H](O)[C@H](CCCO)[C@@H]1O | 31
C=C1/C(=C\C=C2/CCC[C@]3(C)[C@@H]([C@H](C)C[C@H]4OC(=O)C(=C)[C@@H]4CC)CC[C@@H]23)C[C@@H](O)C[C@@H]1O | 6

Compound | Activity [%]
C=C1/C(=C\C=C2/CCC[C@]3(C)[C@@H]([C@H](C)C[C@@H]4OC(=O)C(=C)[C@H]4CC)CC[C@@H]23)C[C@@H](O)[C@H](C)[C@@H]1O | 248
C=C1C(=O)O[C@H](C[C@@H](C)[C@H]2CC[C@H]3/C(=C/C=C4/C[C@@H](O)[C@H](CCCO)[C@H](O)C4=C)CCC[C@]23C)[C@@H]1C | 30
C=C1/C(=C\C=C2/CCC[C@]3(C)[C@@H]([C@H](C)C[C@@H]4OC(=O)C(=C)[C@@H]4CCC)CC[C@@H]23)C[C@@H](O)[C@H](CCCO)[C@@H]1O | 4200
C=C1/C(=C\C=C2/CCC[C@]3(C)[C@@H]([C@H](C)C[C@@H]4OC(=O)C(=C)[C@@H]4CC(C)C)CC[C@@H]23)C[C@@H](O)[C@H](CCCO)[C@@H]1O | 989
C=C1/C(=C\C=C2/CCC[C@]3(C)[C@@H]([C@H](C)C[C@H]4OC(=O)C(=C)[C@H]4CC)CC[C@@H]23)C[C@@H](O)[C@H](OCCCO)[C@@H]1O | 27
C=C1C[C@@H](C[C@@H](C)[C@H]2CC[C@H]3/C(=C/C=C4/C[C@@H](O)[C@H](OCCCO)[C@H](O)C4=C)CCC[C@]23C)OC1=O | 66
C=C1/C(=C\C=C2/CCC[C@]3(C)[C@@H]([C@H](C)C[C@H]4OC(=O)C(=C)[C@@H]4CC)CC[C@@H]23)C[C@@H](O)[C@H](CCCO)[C@@H]1O | 37
C=C1/C(=C\C=C2/CCC[C@]3(C)[C@@H]([C@H](C)C[C@@H]4OC(=O)C(=C)[C@@H]4CC)CC[C@@H]23)C[C@@H](O)C[C@@H]1O | 345
C=C1/C(=C\C=C2/CCC[C@]3(C)[C@@H]([C@H](C)C[C@@H]4OC(=O)C(=C)[C@H]4CCC)CC[C@@H]23)C[C@@H](O)[C@H](C)[C@@H]1O | 2030
C=C1/C(=C\C=C2/CCC[C@]3(C)[C@@H]([C@H](C)C[C@H]4OC(=O)C(=C)[C@H]4CCC)CC[C@@H]23)C[C@@H](O)[C@H](CCCO)[C@@H]1O | 117
C=C1/C(=C\C=C2/CCC[C@]3(C)[C@@H]([C@H](C)C[C@H]4OC(=O)C(=C)[C@@H]4C)CC[C@@H]23)C[C@@H](O)C[C@@H]1O | 7
C=C1/C(=C\C=C2/CCC[C@]3(C)[C@@H]([C@H](C)C[C@H]4OC(=O)C(=C)[C@H]4CCC)CC[C@@H]23)C[C@@H](O)[C@H](C)[C@@H]1O | 170
C=C1C[C@@H](C[C@@H](C)[C@H]2CC[C@H]3/C(=C/C=C4/C[C@@H](O)[C@H](C)[C@H](O)C4=C)CCC[C@]23C)OC1=O | 38
C=C1/C(=C\C=C2/CCC[C@]3(C)[C@@H]([C@H](C)C[C@H]4OC(=O)C(=C)[C@@H]4CCCC)CC[C@@H]23)C[C@@H](O)[C@H](OCCCO)[C@@H]1O | 88
C=C1/C(=C\C=C2/CCC[C@]3(C)[C@@H]([C@H](C)C[C@@H]4OC(=O)C(=C)C4(C)C)CC[C@@H]23)C[C@@H](O)C[C@@H]1O | 1170
C=C1/C(=C\C=C2/CCC[C@]3(C)[C@@H]([C@H](C)C[C@@H]4OC(=O)C(=C)C45CC5)CC[C@@H]23)C[C@@H](O)C[C@@H]1O | 284
C=C1/C(=C\C=C2/CCC[C@]3(C)[C@@H]([C@H](C)C[C@H]4OC(=O)C(=C)[C@@H]4CCC)CC[C@@H]23)C[C@@H](O)[C@H](CCCO)[C@@H]1O | 573
